Measurements reported in patent US20030203915A1, “Nitric oxide donors, compositions and methods of use related applications” (priority 2002, published 2003).
Counter-ions that a name gives are not always drawn.

Tested on: human coronary artery smooth muscle cells (CASMC)
Experiment: Vascular Smooth Muscle Cell (SMC) Antiproliferation Assay
Type: cell-based
Details: CASMC; viable cell count (Trypan Blue) ~68 hr after compound addition; nitrosylated (nitrosothiol) compound; read-out: IC 50 μM, Nitrosylated Compound (inhibition of proliferation of vascular smooth muscle cells)
Experimental: The cells used in this assay were-human coronary artery smooth-muscle cells (CASMC) supplied by Clonetics Corp. (San Diego, Calif.).
Stock solutions of the test compounds were prepared just prior to addition to the cells by dissolving in ethanol at a concentration of 1000 times the highest concentration to be assayed. This stock solution was diluted, as required, with ethanol to lower concentrations. […] Control cultures received 2 μL of ethanol per well (n=4). On the following morning, the cultures were examined microscopically and their condition recorded. On the third day after test compound addition (˜68 hr), the cultures were examined microscopically again and the viable cells counted with an hemacytometer following trypsinization with 0.25% trypsin-1 mM EDTA. Trypan Blue dye exclusion was used to discriminate between viable and dead cells.
CC1(SN=O)C2CC3CC(C2)CC1C3 (stereo not shown) [Example 25c, (2-Methyladamantan-2-yl)nitrosothio] showed an IC50 of 33 µM. O=NSC1(CO)CCN(C(=O)OCc2ccccc2)CC1 [Example 26e, Phenylmethyl 4-(hydroxymethyl)-4-(nitrosothio)piperidinecarboxylate] gave an IC50 of 33 µM. O=NSC1(CC(=O)NCCO)C2CC3CC(C2)CC1C3 (stereo not shown) [Example 34d, N-(2-Hydroxyethyl)-2-(2-(nitrosthio)adamantan-2-yl)acetamide] showed an IC50 of 23 µM. CC1(SN=O)CN2CCC1CC2 (stereo not shown) [Example 36c, (3-Methylquinudidin-3-yl)nitrosothio hydrochlroide] gave an IC50 of 22 µM. C[N+](C)(CCNC(=O)CC1(SN=O)C2CC3CC(C2)CC1C3)Cc1ccccc1 (stereo not shown) [Example 43c, N-(2-(Dimethylbenzylammonium)ethyl)-2-(2-(nitrosothio)adamantan-2-yl)acetamide chloride] gave an IC50 of 27 µM. C[N+](C)(C)CCNC(=O)CC1(SN=O)C2CC3CC(C2)CC1C3 (stereo not shown) [Example 44c, 2-(2-(Nitrosothio)adamantan-2-yl)-N-(2-(trimethylammonium)ethyl)-acetamide chloride] showed an IC50 of 33.5 µM. Work on COP(=O)(CC(SN=O)(C1CC1)C1CC1)OC [Example 47b, Dimethyl (2,2-dicyclopropyl-2-(nitrosothio)ethyl)phosphonate] yielded an IC50 of 41 µM.

Same assay, conditions: CASMC; viable cell count (Trypan Blue) ~68 hr after compound addition; non-nitrosylated (sulfhydryl) compound
With NC(=O)CC1(S)C2CC3CC(C2)CC1C3 (stereo not shown) [Example 12c, 2-(2-Sulfanyladamantan-2-yl)acetamide] the “IC 50 μM, Non-nitrosylated Compound (inhibition of proliferation of vascular smooth muscle cells)” value was “slight inhibition”. In the case of CC(C)(S)CN [Example 18a, 2-Mercapto-2-methyl-1-propylamine], the “IC 50 μM, Non-nitrosylated Compound (inhibition of proliferation of vascular smooth muscle cells)” value is reported as “slight inhibition”. With CC(C)(S)CNC(=O)NCC(C)(C)S [Example 20c, N-(2-Methyl-2-sulfanylpropyl)((2-methyl-2-sulfanylpropyl)amino)carboxade] the “IC 50 μM, Non-nitrosylated Compound (inhibition of proliferation of vascular smooth muscle cells)” value was “slight inhibition”. In the case of CC(C)(S)CN1C(=O)NC(=O)C1=O [Example 21b, 1-(2-Methyl-2-sulfanylpropyl)imidazolidine-2,4,5-trione], the “IC 50 μM, Non-nitrosylated Compound (inhibition of proliferation of vascular smooth muscle cells)” value is reported as “no inhibition”. With O=C(OCc1ccccc1)N1CCC(S)(CO)CC1 [Example 26d, Phenylmethyl 4-(hydroxymethyl)-4-sulfanylpiperidinecarboxylate] the “IC 50 μM, Non-nitrosylated Compound (inhibition of proliferation of vascular smooth muscle cells)” value was “no inhibition”. In the case of O=C(CC1(S)C2CC3CC(C2)CC1C3)NCCO (stereo not shown) [Example 34c, N-(2-Hydroxyethyl)-2-(2-sulfanyladamantan-2-yl)acetamide], the “IC 50 μM, Non-nitrosylated Compound (inhibition of proliferation of vascular smooth muscle cells)” value is reported as “no inhibition”. In the case of CC1(S)CN2CCC1CC2.Cl (stereo not shown) [Example 36b, 3-Methylquinudidine-3-thiol hydrochloride], the “IC 50 μM, Non-nitrosylated Compound (inhibition of proliferation of vascular smooth muscle cells)” value is reported as “no inhibition”. In the case of C[N+](C)(CCNC(=O)CC1(S)C2CC3CC(C2)CC1C3)Cc1ccccc1.[Cl-] (stereo not shown) [Example 43b, N-(2-(Dimethylbenzylammonium)ethyl)-2-(2-sulfanyladamantan-2-yl)acetamide chloride], the “IC 50 μM, Non-nitrosylated Compound (inhibition of proliferation of vascular smooth muscle cells)” value is reported as “no inhibition”. With C[N+](C)(C)CCNC(=O)CC1(S)C2CC3CC(C2)CC1C3.[Cl-] (stereo not shown) [Example 44b, 2-(2—Sulfanyladamantan-2-yl)-N-(2(trimethylammonium)ethyl)acetamide chloride] the “IC 50 μM, Non-nitrosylated Compound (inhibition of proliferation of vascular smooth muscle cells)” value was “no inhibition”. With SC1(C2OCCO2)CCCCC1 [Example 45a, 2(1-Mercaptocyclohex-1-yl)-1,3-dioxolane] the “IC 50 μM, Non-nitrosylated Compound (inhibition of proliferation of vascular smooth muscle cells)” value was “slight inhibition”. With SC1(C2OCCCO2)CCCCC1 [Example 46a, 2-(1-Mercaptocyclohex-1-yl)-1,3-dioxane] the “IC 50 μM, Non-nitrosylated Compound (inhibition of proliferation of vascular smooth muscle cells)” value was “no inhibition”. For COP(=O)(CC(S)(C1CC1)C1CC1)OC [Example 47a, Dimethyl (2,2-dicyclopropyl-2-mercaptoethyl)phosphonate], the “IC 50 μM, Non-nitrosylated Compound (inhibition of proliferation of vascular smooth muscle cells)” value was “slight inhibition”.

Same assay, conditions: CASMC; viable cell count (Trypan Blue) ~68 hr after compound addition; non-nitrosylated (sulfhydryl) compound; read-out: IC 50 μM, Non-nitrosylated Compound (inhibition of proliferation of vascular smooth muscle cells)
Work on CC(C)(S)CN1C(=O)C2C3C=CC(C3)C2C1=O (stereo not shown) [Example 11a, 4-Aza-4-(2-methyl-2-sulfanylpropy)tricyclo(5.2.1.0<2,6>)dec-8-ene-3,5-dione] yielded an IC50 of 80 µM. CC(C)(S)CNC(=O)C(C)(C)CCC(=O)O [Example 27a] gave an IC50 of 78 µM.

Same assay, conditions: Homo sapiens, 68 h, read-out: IC 50 μM, Nitrosylated Compound (inhibition of proliferation of vascular smooth muscle cells)
Work on O=NSC1(CC(=O)OCC(CO[N+](=O)[O-])(CO[N+](=O)[O-])CO[N+](=O)[O-])C2CC3CC(C2)CC1C3 (stereo not shown) [Example 37, 2,2-Bis((nitrooxy)methyl)-3-(nitrooxy)propyl 2-(2-(nitrosothio)adamantan-2-yl)acetate] yielded an IC50 of 5 µM.

Same assay, conditions: Homo sapiens; CASMC; viable cell count (Trypan Blue) ~68 hr after compound addition; nitrosylated (nitrosothiol) compound; read-out: IC 50 μM, Nitrosylated Compound (inhibition of proliferation of vascular smooth muscle cells)
CC(C)(CN1C(=O)C2C3C=CC(C3)C2C1=O)SN=O (stereo not shown) [Example 11b, 4-Aza-4-(2-methyl-2-(nitrosothio)propyl)tricyclo(5.2.1.0<2,6>)dec-8-ene-3,5-dione] showed an IC50 of 16 µM. In the case of NC(=O)CC1(SN=O)C2CC3CC(C2)CC1C3 (stereo not shown) [Example 12d, 2-(2-(Nitrosothio)adamantan-2-yl)acetamide], the IC50 is reported as 12 µM. CSc1nccc(NCC(C)(C)S)n1 [Example 18b, 2-Methyl-1-((2-methylthiopyrimidin-4-yl)amino)propane-2-thiol] showed an IC50 of 26 µM. CC(C)(CNC(=O)CCCC(=O)O)SN=O [Example 19b, 4-(N-(2-Methyl-2-(nitrosothio)propyl)carbamoyl)butanoic acid] showed an IC50 of 50 µM. In the case of CC(C)(CNC(=O)NCC(C)(C)SN=O)SN=O [Example 20d, N-(2-Methyl-2-(nitrosothio)propyl)((2-methyl-2-(nitrosothio)propyl)amino)carboxamide], the IC50 is reported as 28 µM. With CC(C)(CN1C(=O)NC(=O)C1=O)SN=O [Example 21c, 1-(2-Methyl-2-(nitrosothio)propyl)imidazolidine-2,4,5-trione] the IC50 was 12 µM. Work on CC(C)(CNC(=O)C(C)(C)CCC(=O)O)SN=O [Example 27b, 4-Methyl-4-(N-(2-methyl-2-(nitrosothio)propyl)carbamoyl)pentanoic acid] yielded an IC50 of 34 µM. CC(C)(C)OC(=O)CC1(SN=O)C2CC3CC(C2)CC1C3 (stereo not shown) [Example 29, tert-Butyl 2-(2-(nitrosothio)adamantan-2-yl)acetate] gave an IC50 of 11 µM. CC(C)(CN)SN=O [Example 38a, 2-Methyl-2-(nitrosothio)propylamine hydrochloride] gave an IC50 of 40 to 60 µM. Work on CC(C)(CNC(=O)C(C)(C)CO[N+](=O)[O-])SN=O [Example 38b, 2,2-Dimethyl-N-(2-methyl-2-(nitrosothio)propyl)-3-(nitrooxy)propanamide] yielded an IC50 of 50 µM. O=NSC1(C2OCCO2)CCCCC1 [Example 45b, 2(1-Nitrosomercaptocyclohex-1-yl)-1,3-dioxolane] gave an IC50 of 42 µM. Compound O=NSC1(C2OCCCO2)CCCCC1 [Example 46b, 2-(1-Nitrosomercaptocyclohex-1-yl)-1,3-dioxane] has an IC50 of 47 µM.

Same assay, conditions: Homo sapiens; CASMC; viable cell count (Trypan Blue) ~68 hr after compound addition; non-nitrosylated (sulfhydryl) compound; read-out: IC 50 μM, Non-nitrosylated Compound (inhibition of proliferation of vascular smooth muscle cells)
CC(C)(C)OC(=O)CC1(S)C2CC3CC(C2)CC1C3 (stereo not shown) [Example 12a, tert-Butyl-2-(2-sulfanyladamant-2-yl)acetate] showed an IC50 of 25 µM. In the case of CC(C)(S)CNC(=O)CCCC(=O)O [Example 19a, 4-(N-(2-Methyl-2-sulfanylpropyl)carbamoyl)butanoic acid], the IC50 is reported as > 200 µM. CC1(S)C2CC3CC(C2)CC1C3 (stereo not shown) [Example 25b, 2-Methyladamantane-2-thiol] showed an IC50 of 65 µM.

Tested on: not given
Experiment: not given
Details: not given
In the case of CC1(C)c2ccccc2C(C)(C)C1(CC#N)SN=O [Example 4, 2-(1,1,3,3-Tetramethyl-2-(nitrosothio)indan-2-yl)ethanenitrile], the melting point is reported as 67 to 69 °C. For CC(C)(CNC(=O)CSCC(=O)O)SN=O [Example 5, 2-((N-(2-Methyl-2-(nitrosothio)propyl)carbamoyl)methylthio)acetic acid], the melting point was 47 to 51 °C. CC12CCC(C1)C(C)(C)C2(CCO)SN=O (stereo not shown) [Example 7, 2-(1,3,3-Trimethyl-2-(nitrosothio)bicyclo(2.2.1)hept-2-yl)ethan-1-ol] showed a melting point of 81 to 85 °C. Work on CC(C)(C)C(CC#N)(SN=O)C(C)(C)C [Example 15, 3-(tert-Butyl)-4,4-dimethyl-3-(nitrosothio)pentanenitrile] yielded a melting point of 92 to 93 °C. For CSc1nccc(NCC(C)(C)SN=O)n1 [Example 18c, (2-Methyl-2-(nitrosothio)propyl)(2-methylthiopyrimidin-4-yl)amine], the melting point was 77 to 79 °C. CC(C)(CNC(=O)CCCC(=O)O)SN=O [Example 19b, 4-(N-(2-Methyl-2-(nitrosothio)propyl)carbamoyl)butanoic acid] gave a melting point of 104 to 107 °C. Work on CC(C)(CN1C(=O)NC(=O)C1=O)SN=O [Example 21c, 1-(2-Methyl-2-(nitrosothio)propyl)imidazolidine-2,4,5-trione] yielded a melting point of 80 to 82 °C. In the case of CC(C)(CNC(=O)C(C)(C)CCC(=O)O)SN=O [Example 27b, 4-Methyl-4-(N-(2-methyl-2-(nitrosothio)propyl)carbamoyl)pentanoic acid], the melting point is reported as 93 to 96 °C. In the case of CC(C)(C)OC(=O)CC1(SN=O)C2CC3CC(C2)CC1C3 (stereo not shown) [Example 29, tert-Butyl 2-(2-(nitrosothio)adamantan-2-yl)acetate], the melting point is reported as 85 to 87 °C. COc1ccc(C(=O)OCCC2(SN=O)C3CC4CC(C3)CC2C4)cc1 (stereo not shown) [Example 31, 2-(2-(Nitrosothio)adamantan-2-yl)ethyl 4-methoxybenzoate] showed a melting point of 100 to 101 °C. Compound O=NSC1(C2OCCO2)CCCCC1 [Example 45b, 2(1-Nitrosomercaptocyclohex-1-yl)-1,3-dioxolane] has a melting point of 37 to 39 °C. Work on O=NSC1(C2OCCCO2)CCCCC1 [Example 46b, 2-(1-Nitrosomercaptocyclohex-1-yl)-1,3-dioxane] yielded a melting point of 34 to 36 °C.
